Measured values as given in patent publication US11998642B2 (priority 2011, dated 2024).
Like-named read-outs stand apart in the source and are kept apart here.

Tests used:
[1] = cited from earlier work
[2] = cited from earlier work; remark: listed apart in the source
αHL = αHL (Staphylococcus aureus, UniProt P09616); settings: pH 7; cited from earlier work
WT αHL pore = WT αHL pore (Staphylococcus aureus, UniProt P09616); type: biochemical, staphylococcal; settings: pH 8
cell membrane = settings: Xu & McLeod 2001; cited from earlier work

Chain of αHL (P09616 27-319 limits assumed): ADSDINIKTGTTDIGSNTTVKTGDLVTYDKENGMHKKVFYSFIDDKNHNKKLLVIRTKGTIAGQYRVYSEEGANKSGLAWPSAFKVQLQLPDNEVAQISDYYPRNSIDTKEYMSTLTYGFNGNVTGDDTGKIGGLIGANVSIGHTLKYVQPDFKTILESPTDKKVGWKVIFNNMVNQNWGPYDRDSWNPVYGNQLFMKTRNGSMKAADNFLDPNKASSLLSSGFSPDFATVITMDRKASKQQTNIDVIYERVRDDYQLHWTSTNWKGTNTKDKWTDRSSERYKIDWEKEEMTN
Chain of WT αHL pore (P09616 27-319 limits assumed): as above

O=C(O)CN(CCN(CC(=O)O)CC(=O)O)CC(=O)O [EDTA]
koff for Ca^2+ dissociation ([1]; Naraghi 1997, Johnson et al. 1999): < 1 s⁻¹

CC/C(=C(\c1ccc(O)cc1)c1ccc(OCCN(C)C)cc1)c1ccc(C(C)C)cc1 [Miproxifene, miproxifene]
water solubility less than miproxifene phosphate ([2]; relative to miproxifene phosphate): 1,000 times

OC[C@H]1O[C@@H]2O[C@H]3[C@H](O)[C@@H](O)[C@@H](O[C@H]4[C@H](O)[C@@H](O)[C@@H](O[C@H]5[C@H](O)[C@@H](O)[C@@H](O[C@H]6[C@H](O)[C@@H](O)[C@@H](O[C@H]7[C@H](O)[C@@H](O)[C@@H](O[C@H]8[C@H](O)[C@@H](O)[C@@H](O[C@H]9[C@H](O)[C@@H](O)[C@@H](O[C@H]1[C@H](O)[C@H]2O)O[C@@H]9CO)O[C@@H]8CO)O[C@@H]7CO)O[C@@H]6CO)O[C@@H]5CO)O[C@@H]4CO)O[C@@H]3CO [γCD, γ-cyclodextrin]
blocking amplitude (αHL): ~60%
dissociation rate (αHL): 2.0 s⁻¹
current blockade (blocking) amplitude, mean±s.d. (WT αHL pore): 63.7±2.0%
dissociation rate, mean±s.d. (WT αHL pore): 4.0 ± 0.6 s⁻¹

COc1cccc2c1C(=O)c1c(O)c3c(c(O)c1C2=O)C[C@@](O)(C(=O)CO)C[C@@H]3O[C@H]1C[C@H](N)[C@H](O)[C@H](C)O1 [doxorubicin]
permeability to the cell membrane (cell membrane): able to access the cytosol and is

miproxifene phosphate
aqueous solubility greater than miproxifene ([2]; relative to miproxifene, Rautio et al. 2008): 1,000 fold

fluo-4
koff for Ca^2+ dissociation [1]: ~400 s⁻¹
